For the data set, the system named is Mcl-1 and Caspase-3. Description: Western blot of Mcl-1 and Caspase-3 in U2932 cells. It counts as cell-based, human. The conditions noted are these: U2932, 500 nM. The protocol: FIGS. 3A-F show cell culture-based functional assay in U2932 lymphoma cells. (3A) γtcPNA-155-TAMRA uptake in the U2932 lymphoma cell line: Representative flow cytometry traces of TAMRA fluorescence in U2932 cells after treatment with 500 nM dose of γtcPNA-155-TAMRA for 48 hours. The data was analyzed by FlowJo software. (3B) Normalized miR-155 gene expression levels in U2932 after treatment with phosphate buffer saline (PBS) as a control and with 500 nM dose of Scr-γtcPNA-155, PNA-155, γPNA-155 and γtcPNA-155 for 48 hours compared to average control U6 (n=3), data represented as mean±standard error mean (SEM), Statistical analysis was performed using Unpaired two-tailed t-test. […] (3E) Representative western blot of Mcl-1 and its quantification (n=3 technical replicate) and (3F) Caspase-3 protein and its quantification (n=3 technical replicate) in U2932 cell line after treatment with 500 nM of Scr-γtcPNA-155, PNA-155 and γtcPNA-155 for 48 hours. […] Numbers above western blot panels represent relative quantification of the respective bands using ImageJ software and normalized relative to loading control and treatment control.
FIGS. 5A-B show representative western blot of Mcl-1 (5A) and Caspase-3 (5B) and its quantification (n=3) obtained from U2932 cell line after treatment with 500 nM of Scr-γtcPNA-155, γPNA-155 and γtcPNA-155 for 48 hours. […]
(In general: A western blot detects proteins with antibodies after separation by electrophoresis.)

With “γtcPNA-155: serine gamma tail-clamp anti-miR-155 PNA, RR-TJJJJ-OOO-ACCCCTATCACGATTAGCATTAA-RR, SEQ ID NO: 3 (all peptide nucleic acid (PNA); serine gamma PNA, tail-clamp TJJJJ via linkers, Arg-Arg at both ends)”, the “downregulation of Mcl-1 protein (western blot)” value was determined as 50% and the “upregulation of Caspase-3 protein (western blot)” value amounted to 80%.
